This assay relates to human PDE4. Briefly: PDE4 inhibition, in vitro enzymatic IMAP FP assay. In kind it is biochemical. The note with it: PDE4 partially purified from undifferentiated human monocytic cells (U-937); fluorescently labeled cAMP substrate; 90 minutes at room temperature; fluorescence polarization. The method, then:
PDE4 specifically hydrolyzes cAMP and releases the product AMP. The potency of PDE inhibition by said agents is determined in an in vitro enzymatic assay. The assay is commercially available (IMAP™ FP assay Molecular Devices Corp. (MDS)) and is optimized for the use of human PDE4. Fluorescently labeled cAMP is hydrolyzed by PDE4 and in a second step, binding of labeled product to a large binding partner allowed product detection by fluorescence polarization (FP) measurements.
PDE4 is partially purified from undifferentiated human monocytic cells (U-937) according to Thorpy et al. 1992 (J. Pharmacol. Exp. Ther. 263: 1195). […] In addition, PDE4 preparations are validated by inhibition studies with PDE4-specific and unspecific PDE inhibitors.
Stock solutions of test compounds are made in DMSO and diluted in assay buffer (10 mM Tris-HCl, 10 mM MgCl2, 0.1% BSA 0.05% NaN3, pH 7.2) to the desired concentrations. The solutions used in the assay contained test compound in assay buffer with 2% DMSO.
10 μl of substrate (at a concentration recommended by the manufacturer) are mixed with 5 μl of appropriately diluted PDE and 5 μl of test compound solution. 5 μl of reaction buffer with 2% DMSO are used for control reactions. […] After incubation for 90 minutes at room temperature, 60 μl of binding reagent are added as specified by the manufacturer. Binding is allowed to proceed for 30 minutes and fluorescence polarization is measured. Dose dependence of PDE inhibition is measured by assaying dilution series of test compounds in duplicates. IC50 values are determined from the measured activities by curve fitting.
On the technique in general: Polarisation of emitted light reports the rotation of a fluorescent probe.
Turning to `CC[C@H]1OC(=O)[C@H](C)[C@@H](O)[C@H](C)[C@@H](O[C@@H]2O[C@H](C)C[C@@H](N3CCOCC3)[C@@H]2N(C)C)[C@](C)(OC)C[C@@H](C)C(=O)[C@H](C)[C@H]2[C@H](SCCN(Cc3c(Cl)cncc3Cl)c3ccc(OC)c(OC4CCCC4)c3)C(=O)O[C@@]21C` (stereo in doubt) [Example 12], the IC50 worked out at 220 nM.

`CC[C@H]1OC(=O)[C@H](C)[C@@H](O[C@H]2C[C@@](C)(OC)[C@@H](O)[C@H](C)O2)[C@H](C)[C@@H](O[C@@H]2O[C@H](C)C[C@H](N(C)C(C)=O)[C@H]2O)[C@](C)(OC)C[C@@H](C)C(=O)[C@H](C)[C@H]2[C@H](SCCN(Cc3c(Cl)cncc3Cl)c3ccc(OC)c(OC4CCCC4)c3)C(=O)O[C@@]21C` [Example 10] returned an IC50 of 31 nM.

Take `CC[C@H]1OC(=O)[C@H](C)[C@@H](O[C@H]2C[C@@](C)(OC)[C@@H](O)[C@H](C)O2)[C@H](C)[C@@H](O[C@@H]2O[C@H](C)C[C@H](N(C)CC(C)C)[C@H]2O)[C@](C)(OC)C[C@@H](C)C(=O)[C@H](C)[C@H]2[C@H](SCCN(C(=O)c3ccncc3)c3ccc(OC)c(OC4CCCC4)c3)C(=O)O[C@@]21C` (stereo in doubt) [Example 3]: half-maximal inhibition (IC50) required 13600 nM.

`CC[C@H]1OC(=O)[C@H](C)[C@@H](O[C@H]2C[C@@](C)(OC)[C@@H](O)[C@H](C)O2)[C@H](C)[C@@H](O[C@@H]2O[C@H](C)C[C@H](N(C)C(C)=O)[C@H]2O)[C@](C)(OC)C[C@@H](C)C(=O)[C@H](C)[C@H]2[C@H](SCCOc3cc(C(=O)Nc4c(Cl)cncc4Cl)ccc3OC)C(=O)O[C@@]21C` (stereo in doubt) [Example 14]: the midpoint of inhibition, the IC50, lay at 2.7 nM.

For the compound `CC[C@H]1OC(=O)[C@H](C)[C@@H](O[C@H]2C[C@@](C)(OC)[C@@H](O)[C@H](C)O2)[C@H](C)[C@@H](O[C@@H]2O[C@H](C)C[C@H](N(C)CC(C)C)[C@H]2O)[C@](C)(OC)C[C@@H](C)C(=O)[C@H](C)[C@H]2[C@H](SCCn3cnc4c(N)ncnc43)C(=O)O[C@@]21C` (stereo in doubt) [Example 2], inhibition was half-maximal at 2800 nM (IC50).

Consider `CC[C@H]1OC(=O)[C@H](C)[C@@H](O)[C@H](C)[C@@H](O[C@@H]2O[C@H](C)C[C@H](N(C)C)[C@H]2OC)[C@](C)(OC)C[C@@H](C)C(=O)[C@H](C)[C@H]2[C@H](SCCN(Cc3c(Cl)cncc3Cl)c3ccc(OC)c(OC4CCCC4)c3)C(=O)O[C@@]21C` (stereo in doubt) [Example 9], for which it took 300 nM to reach half-maximal inhibition (IC50).

Compound `CC[C@H]1OC(=O)[C@H](C)[C@@H](O)[C@H](C)[C@@H](O[C@@H]2O[C@H](C)C=C[C@H]2O)[C@](C)(OC)C[C@@H](C)C(=O)[C@H](C)[C@H]2[C@H](SCCn3cnc4c(N)ncnc43)C(=O)O[C@@]21C` (stereo in doubt) [Example 1] gave an IC50 of 4800 nM.

`CC[C@H]1OC(=O)[C@H](C)[C@@H](O)[C@H](C)[C@@H](O[C@@H]2O[C@H](C)C[C@@H](OC)[C@@H]2N(C)C)[C@](C)(OC)C[C@@H](C)C(=O)[C@H](C)[C@H]2[C@H](SCCN(Cc3c(Cl)cncc3Cl)c3ccc(OC)c(OC4CCCC4)c3)C(=O)O[C@@]21C` (stereo in doubt) [Example 8] showed an IC50 of 220 nM.

For `CC[C@H]1OC(=O)[C@H](C)[C@@H](O[C@H]2C[C@@](C)(OC)[C@@H](O)[C@H](C)O2)[C@H](C)[C@@H](O[C@@H]2O[C@H](C)C[C@@H](OC)[C@@H]2N(C)C)[C@](C)(OC)C[C@@H](C)C(=O)[C@H](C)[C@H]2[C@H](SCCN(Cc3ccncc3)c3ccc(OC)c(OC4CCCC4)c3)C(=O)O[C@@]21C` (stereo in doubt) [Example 6], it took 1400 nM to reach half-maximal inhibition (IC50).

Turning to `CC[C@H]1OC(=O)[C@H](C)[C@@H](O[C@H]2C[C@@](C)(OC)[C@@H](O)[C@H](C)O2)[C@H](C)[C@@H](O[C@@H]2O[C@H](C)C[C@@H](OC)[C@@H]2N(C)C)[C@](C)(OC)C[C@@H](C)C(=O)[C@H](C)[C@H]2[C@H](SCCN(Cc3c(Cl)cncc3Cl)c3ccc(OC)c(OC4CCCC4)c3)C(=O)O[C@@]21C` (stereo in doubt) [Example 7], inhibition was half-maximal at 140 nM (IC50).

In turn, `CC[C@H]1OC(=O)[C@H](C)[C@@H](O[C@H]2C[C@@](C)(OC)[C@@H](O)[C@H](C)O2)[C@H](C)[C@@H](O[C@@H]2O[C@H](C)C[C@@H](OC)[C@@H]2N(C)C)[C@](C)(OC)C[C@@H](C)C(=O)[C@H](C)[C@H]2[C@H](SCCn3cnc4c(N)ncc(C(=O)Nc5c(Cl)cncc5Cl)c43)C(=O)O[C@@]21C` (stereo in doubt) [Example 5] yielded an IC50 of 110 nM.

Compound `CC[C@H]1OC(=O)[C@H](C)[C@@H](O[C@H]2C[C@@](C)(OC)[C@@H](O)[C@H](C)O2)[C@H](C)[C@@H](O[C@@H]2O[C@H](C)C[C@H](N(C)C(=O)N3CCOCC3)[C@H]2O)[C@](C)(OC)C[C@@H](C)C(=O)[C@H](C)[C@H]2[C@H](SCCCOc3cc(C(=O)Nc4c(Cl)cncc4Cl)ccc3OC)C(=O)O[C@@]21C` (stereo in doubt) [Example 16] came in with an IC50 of 220 nM.

A word on the IC50: it is the concentration needed to halve the response being measured.

Values taken from patent publication US8410065B2, “Macrolides and their use” (Basilea Pharmaceutica AG, priority 2008, dated 2013).
